The text below walks through data of EP4699613A1, “NOVEL USE OF CPNE7 PROTEIN-DERIVED PEPTIDE” (Hysensbio Co., Ltd, priority 2023, dated 2024).

Data set [1] deals with Human dermal fibroblasts (hDFs). Kind of data set: WST-8 assay, cytotoxicity in dermal fibroblasts. Type of data set: cell-based. The note with it: 48 hours treatment; tested at 10, 100 µM, 1, 5, 10 mM; WST-8, 450nm absorbance. As for the experimental part: Human dermal fibroblasts (hDFs) were dispensed at 0.3×10^5/well in 96-well plates (using Fibroblast Growth Medium (Lonza, CC-4126) containing 2% FBS, 0.1% Insulin, 0.1% FGF, 0.1% Gentamycin sulfate-Amphotericin) and cultured for 24 hours in an incubator at 37°C, 5% CO2 conditions.
WST-8 analysis was performed to confirm cytotoxicity of the peptide (SEQ ID NO: 96) in dermal fibroblasts. The peptide was treated on dermal fibroblasts at concentrations of 10, 100 µM, 1, 5, 10 mM respectively. After treating for 48 hours at each concentration, WST-8 solution was dispensed into the culture medium at a 10:1 ratio, light-shielded, reacted for 2 hours under 37°C incubator conditions, and then measured at 450nm absorbance with a microplate.
The peptide (SEQ ID NO: 96) of the present invention was treated on dermal fibroblasts at concentrations of 10, 100 µM, 1, 5, 10 mM respectively. After 48 hours, cell viability was quantified through WST-8 analysis.
On the technique in general: Tetrazolium assays rely on reduction of a dye to a coloured formazan, in cell work by metabolically active cells.

The subject of data set [2] is human-derived three-dimensional skin tissue. Kind of data set: Skin penetration of fluorescence-conjugated peptide in human-derived three-dimensional skin tissue (confocal microscopy). Type of data set: in vitro ADME. The note with it: 1 mM fluorescence-conjugated peptide. As for the experimental part:
To confirm the possibility of skin penetration of the peptides of the present invention, three-dimensional skin tissue composed of epidermis and dermis was created using human-derived keratinocytes and dermal fibroblasts, and then fluorescence-conjugated peptide (SEQ ID NO: 96) of the present invention at 1 mM was treated. After treatment, the position of fluorescence was continuously observed through confocal microscopy at 1, 6, 12, and 24 hours.
FITC fluorescence was attached to the lysine residue of the peptide (SEQ ID NO: 96) of the present invention to create Peptide-FITC using the peptide (SEQ ID NO: 96) of the present invention. Peptide-FITC at 1 mM was treated on human-derived three-dimensional skin tissue (TegoScience, Neoderm-ED) and the skin penetration state of Peptide-FITC was confirmed through confocal microscopy at 1 hour, 6 hours, 12 hours, and 24 hours.

No end group written: not given here.

Regarding KYKQKRRSYK [SEQ ID NO: 96, KYKQKRRSYK], in data set [1], the “no cytotoxicity to dermal fibroblasts up to a concentration of” value is at most 5 mM. The “significant cytotoxicity at a concentration of” value in data set [1] came to 10 mM. Further, the “position of fluorescence (skin penetration)” value is reported as “observed in the stratum corneum” in data set [2] (after 1 hour), “observed in the epidermal layer” in data set [2] (after 6 hours), “existed in the dermal layer” in data set [2] (after 24 hours) and “began to be observed in the dermal layer” in data set [2] (from 12 hours onward).
